Assay results published in US10058550B2, “Methods of treating heart failure” (priority 2015, dated 2018).

Target: human APJ receptor (Homo sapiens (Human), UniProt P35414)
Assay: biochemical
Type: biochemical
Conditions: read-out: Activity hAPJ SPA EC50 IP
Method: The human APJ receptor was cloned by polymerase chain reaction and the gene encoding the receptor was subcloned in pFLAG-CMV™-3 expression vector (Sigma, Saint Louis, Mo. USA) in-house at Amgen. A GTPγS binding assay was performed on membranes prepared from CHO cells stably expressing human APJ receptor. The optimum experimental conditions for the concentrations of GDP, MgCl2, and NaCl in the assay buffer were initially determined. The assay was performed in assay buffer [20 mM HEPES, pH 7.5, 5 mM MgCl2, and 0.1% (w/v) BSA with 200 mM NaCl, 3 μM GDP] and membranes expressing human APJ receptor/well along with WGA PS beads. The reaction was initiated by addition of 0.2 nM [^35S]GTPγS (Perkin Elmer Life and Analytical Sciences, Waltham USA) in the absence or presence of various ligands and incubated at RT for 90 min. […] All the results presented are means of several independent experiments and analyzed by non-linear regression methods using commercially available program Prism (GraphPad, San Diego, Calif.) to obtain EC50 detailed in Table 58.

Sequence of human APJ receptor (P35414 whole entry): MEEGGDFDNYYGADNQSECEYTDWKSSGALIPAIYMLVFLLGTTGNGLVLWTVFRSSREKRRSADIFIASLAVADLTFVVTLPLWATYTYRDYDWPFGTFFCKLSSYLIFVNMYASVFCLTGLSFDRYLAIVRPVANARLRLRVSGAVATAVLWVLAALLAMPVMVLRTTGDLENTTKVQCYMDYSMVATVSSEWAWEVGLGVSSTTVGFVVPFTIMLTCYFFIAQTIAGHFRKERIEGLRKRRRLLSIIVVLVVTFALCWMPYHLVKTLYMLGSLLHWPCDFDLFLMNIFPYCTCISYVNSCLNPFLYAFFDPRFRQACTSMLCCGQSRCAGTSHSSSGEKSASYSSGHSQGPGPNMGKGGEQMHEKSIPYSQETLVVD

Compound	EC50 [nM]
COc1cccc(-c2nnc(NS(=O)(=O)[C@@H](C)[C@H](OC)c3ncc(C)cn3)n2-c2cccc(Cl)c2C)n1 (atropisomer, axis not shown; (P)) [Example 55.0, (1R,2S,P)-N-(4-(3-chloro-2-methylphenyl)-5-(6-methoxy-2-pyridinyl)-4H-1,2,4-triazol-3-yl)-1-methoxy-1-(5-methyl-2-pyrimidinyl)-2-propanesulfonamide and (1R,2S,M)-N-(4-(3-chloro-2-methylphenyl)-5-(6-methoxy-2-pyridinyl)-4H-1,2,4-triazol-3-yl)-1-methoxy-1-(5-methyl-2-pyrimidinyl)-2-propanesulfonamide]	17
COc1cccc(-c2nnc(NS(=O)(=O)[C@@H](C)[C@H](OC)c3ncc(C)cn3)n2-c2ccccc2C)n1 (atropisomer, axis not shown; (P)) [Example 61.0, (1R,2S,P)-1-methoxy-N-(5-(6-methoxy-2-pyridinyl)-4-(2-methylphenyl)-4H-1,2,4-triazol-3-yl)-1-(5-methyl-2-pyrimidinyl)-2-propanesulfonamide and (1R,2S,M)-1-methoxy-N-(5-(6-methoxy-2-pyridinyl)-4-(2-methylphenyl)-4H-1,2,4-triazol-3-yl)-1-(5-methyl-2-pyrimidinyl)-2-propanesulfonamide]	6.5
COc1cccc(-c2nnc(NS(=O)(=O)[C@@H](C)[C@H](OC)c3ncc(C)cn3)n2-c2ccc(F)cc2Cl)n1 (atropisomer, axis not shown; (P)) [Example 67.0, (1R,2S,P)-N-(4-(2-chloro-4-fluorophenyl)-5-(6-methoxy-2-pyridinyl)-4H-1,2,4-triazol-3-yl)-1-methoxy-1-(5-methyl-2-pyrimidinyl)-2-propanesulfonamide and (1R,2S,M)-N-(4-(2-chloro-4-fluorophenyl)-5-(6-methoxy-2-pyridinyl)-4H-1,2,4-triazol-3-yl)-1-methoxy-1-(5-methyl-2-pyrimidinyl)-2-propanesulfonamide]	15
COc1cccc(-c2nnc(NS(=O)(=O)[C@@H](C)[C@H](OC)c3ncc(C)cn3)n2-c2ccccc2Cl)n1 (atropisomer, axis not shown; (P)) [Example 69.0, (1R,2S,P)-N-(4-(2-chlorophenyl)-5-(6-methoxy-2-pyridinyl)-4H-1,2,4-triazol-3-yl)-1-methoxy-1-(5-methyl-2-pyrimidinyl)-2-propanesulfonamide and (1R,2S,M)-N-(4-(2-chlorophenyl)-5-(6-methoxy-2-pyridinyl)-4H-1,2,4-triazol-3-yl)-1-methoxy-1-(5-methyl-2-pyrimidinyl)-2-propanesulfonamide]	2.1
COc1cccc(-c2nnc(NS(=O)(=O)[C@@H](C)[C@H](OC)c3ncc(C)cn3)n2-c2cccc(C)c2C)n1 (atropisomer, axis not shown; (P)) [Example 70.0, (1R,2S,P)-N-(4-(2,3-dimethylphenyl)-5-(6-methoxy-2-pyridinyl)-4H-1,2,4-triazol-3-yl)-1-methoxy-1-(5-methyl-2-pyrimidinyl)-2-propanesulfonamide and (1R,2S,M)-N-(4-(2,3-dimethylphenyl)-5-(6-methoxy-2-pyridinyl)-4H-1,2,4-triazol-3-yl)-1-methoxy-1-(5-methyl-2-pyrimidinyl)-2-propanesulfonamide]	2.6
COc1cccc(-c2nnc(NS(=O)(=O)[C@@H](C)[C@H](OC)c3ncc(C)cn3)n2-c2ccccc2C(F)(F)F)n1 (atropisomer, axis not shown; (P)) [Example 74.0, (1R,2S,P)-1-methoxy-N-(5-(6-methoxy-2-pyridinyl)-4-(2-(trifluoromethyl)phenyl)-4H-1,2,4-triazol-3-yl)-1-(5-methyl-2-pyrimidinyl)-2-propanesulfonamide and (1R,2S,M)-1-methoxy-N-(5-(6-methoxy-2-pyridinyl)-4-(2-(trifluoromethyl)phenyl)-4H-1,2,4-triazol-3-yl)-1-(5-methyl-2-pyrimidinyl)-2-propanesulfonamide]	2.5
